Assay results from patent US20250025438A1, “Derivative of aspartic acid and use thereof in treatment of metabolic diseases such as hepatic fibrosis and non-alcoholic hepatitis” (SHENZHEN JINGTAI TECHNOLOGY CO., LTD., priority 2021, published 2025).
Structures can show the parent of a compound that is named as a salt.

Columns and labels:
[1] = test system: NS3TP1; assay: Regulation of NS3TP1 in semi-activated LX2 cells, qPCR; type: cell-based; conditions: LX-2 cells, 48 hours, Q-PCR, vs control group
Experimental: Test compounds were added to the LX-2 cells respectively, and total RNA in the cells was extracted 48 hours later. This experiment was performed strictly in accordance with the instructions of the Total RNA Kit. The steps were as follows (note: this experiment was performed on ice throughout the entire process, and special RNase-free tips were used throughout the entire process): • 1) The 12-well cell culture plate was taken out from the incubator, the cell culture medium was discarded, the cells were washed twice with 1 mL of 1×PBS, and a negative pressure suction device was used to fully remove PBS; • 2) 350 μL of TRK Lysis Buffer mixture/well was prepared as needed (mixture preparation method: 1 mL of TRKLysis Buffer+20 μL of β-mercaptoethanol), vortexed and mixed well. 350 μL was added to each well of the 12-well cell culture plate, and allowed to stand at room temperature for 5 minutes to fully lyse the cells; • 3) 70% ethanol/well was prepared as needed, vortexed and mixed well. 350 μL was added to each well of the 12-well cell culture plate, mixed well by shaking, and transferred to the spin column (spin column+collection tube were assembled); • 4) Centrifugation was performed at 4° C., 12000 g for 60 sec. The waste liquid was discarded after centrifugation, while the spin column was kept; • 5) 500 μL of RNA Wash Buffer I was added, centrifuged at 4° C., 12000 g for 60 sec, the waste liquid was discarded after centrifugation, and the collection column was kept; • 6) 500 μL of RNA Wash Buffer II (confirmed that ethanol had been added) was added, centrifuged at 4° C., 12000 g for 60 sec, the waste liquid was discarded after centrifugation, and the collection column was kept; • 7) step 6) was repeated once again, centrifugation was performed at 4° C., 12000 g for 90 sec, the waste liquid was discarded after centrifugation, and the collection column was kept; • 8) Centrifugation was performed at 4° C., 12000 g for 120 sec to ensure that the spin column was fully dried; • 9) The dried spin column was inserted into a new 1.5 mL EP tube, and 30 μL of DEPC water was added to the membrane in the center of the spin column. It should be careful not to touch the EP tube cover in this step. It was allowed to stand at room temperature for 5 minutes to ensure that the RNA was fully dissolved in DEPC water. Centrifugation was performed at 4° C., 12000 g for 60 sec, and the EP tube was kept; • 10) NanoDrop ultra-micro-volume spectrophotometer was used to detect RNA concentration;
5.2 Reverse transcription of RNA into cDNA: According to the instructions of PrimeScript™ RT reagent Kit (Perfect Real Time), the specific experimental steps were as follows:
5.3 Q-PCR detection of target gene expression: According to the instructions of Power SYBR® Green PCR Master Mix, the specific operations were as follows:
After the reaction was completed, the amplification curve and dissolution curve of Q-PCR were confirmed, and the relative quantification method ([…]) was used to perform data analysis on the experimental results.
LX2 cells were passaged and plated normally. […] After 48 hours, the cells were collected, total RNA was extracted, and the expression of NS3TP1 gene was detected using Q-PCR method.

[2] = test system: collagen III; assay: Semi-activated LX2 cells, Western blot: collagen III protein; type: cell-based; conditions: 50-400 μM, 48 hours, FIG. 1, vs 50 μM aspartic acid
Experimental: 4. Western blotting to detect protein expression level
4.1 Extraction of total cell protein: The cells were taken out, the original culture medium was discarded, 1 to 2 mL of 1×PBS was added, washing was performed twice, digestion was performed with trypsin, the supernatant was discarded, the cells at the bottom of the tube were gently moved by flicking, and then 1 mL of PBS was added again to wash the cells twice; after being centrifuged at 1200 rpm for 5 minutes, the supernatant was completely discarded, the cells at the bottom of the tube was mixed well by flicking. Depending on the amount of cells, 50 to 100 μL of protein lysis buffer containing protease inhibitor and phosphatase inhibitor was added, the cells were mixed thoroughly by pipetting, placed on ice and lysed for 30 minutes, then centrifuged at 12,000 rcf for 15 minutes at 4° C., and the supernatant was pipetted and transferred into a new EP tube to obtain the total cell protein, which could be directly used for subsequent determination of protein concentration or stored at −80° C.
4.2 Determination of protein concentration by BCA method: BCA reagent solution A and solution B were mixed well at a ratio of 50:1 to prepare a working solution; 5 μL of the sample to be tested was taken, added into 95 μL of deionized water, mixed, and diluted 20 times, and 20 μL of the diluted sample to be tested was taken and added to a 96-well plate; after 200 μL of the working solution was added, the 96-well plate was placed in a 37° C. incubator and incubated for 30 min, and then tested on the machine.
4.3 Protein denaturation: 100 μg of each of samples was taken respectively, supplemented with protein lysis buffer to reach the volume of each sample, then added with 4× loading buffer at 1/3 of the total volume and mixed thoroughly, underwent denaturation at 99° C. for 10 min, centrifuged and stored at −80° C. […]

SMILES | Up-regulation of NS3TP1 ([1]; test concentration 10 mM) | Up-regulation of NS3TP1 ([1]; 200 µM compound) | inhibitory effect on collagen III protein expression as compared to ASP [2]
COC(=O)[C@@H](N)CC(=O)O [Compound 4] | B (B represented that the up-regulation was 20~40%) | – | –
COC(=O)C[C@H](N)C(=O)O [Compound 6] | – | A (A represented that the up-regulation was 40% or above) | stronger inhibitory effects
N[C@@H](CCC(=O)O)C(=O)O [Compound 47] | – | – | stronger inhibitory effects
COC(=O)C[C@H](N)C(=O)OCOC(=O)[C@@H](N)CC(=O)OC [Compound 54, 4-dimethyl O′1,01-methylene (2S,2'S)-bis (2-aminosuccinate) hydrochloride] | – | A (A represented that the up-regulation was 40% or above) | stronger inhibitory effects
